Reference: patent publication US12022833B2, “Uracil compound and composition for controlling harmful arthropods comprising the same” (Sumitomo Chemical Company, Limited, priority 2018, dated 2024)

Test system: diamondback moth (Plutella xylostella)
Experiment: Test Example 1: cabbage seedling spray test against diamondback moth larvae
Type: in vivo
Conditions: 500 ppm diluted solution sprayed on cabbage seedling, 20 mL/seedling; five second instar larvae; 25° C. for 5 days
Description: Thirty-five (35) parts of a mixture of polyoxyethylene alkyl ether sulfate ammonium salt and wet silica (weight ratio of 1:1), 20 parts of the compound A, and 45 parts of water were mixed thoroughly. The resulting mixture was diluted with water containing 0.03 v/v % of Shindain (registered trademark) to prepare a diluted solution containing 500 ppm of the compound A. The diluted solution was sprayed into the cabbage (Brassicae oleracea) seedling (on the developmental stage of the second to third true leaf) that is planted in a container in a ratio of 20 mL/seedling.
Thereafter, the stem and leaf of thereof was cut out and then was installed into the container that was covered with the filter paper. Five second instar larvae of diamondback moth (Plutella xylostella) were released into the container, and the container was allowed to stand at 25° C. for 5 days. Thereafter, the surviving insects were counted, and the mortality was calculated from the following equation, and as a result, the mortality was 100%. Mortality (%)=(1−Number of the surviving insects/5)×100
The test was carried out according to Test Example 1 using the compound B instead of the compound A. As a result, the mortality was 0%.

| SMILES | Mortality [%] |
| --- | --- |
| CCOC(=O)COC(=O)COc1ncccc1Oc1cc(-n2c(=O)cc(C(F)(F)F)n(C)c2=O)c(F)cc1Cl [Compound A] | 100 |
| COC(=O)COC(=O)COc1ncccc1Oc1cc(-n2c(=O)cc(C(F)(F)F)n(C)c2=O)c(F)cc1Cl [Compound B] | 0 |
